Reference: PubChem BioAssay (NCI)
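Tested at 5 concentrations; 48 h exposure; 96-well plates; endpoints linearly interpolated, else capped at highest concentration. GI50 = concentration required for 50% inhibition of growth. The concentration for full growth arrest is given as TGI.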

Key:
Assay in all cases: growth of human tumour cells (NCI), 48 h
SNB-78 CNS = system: SNB-78 CNS
KM20L2 colon = system: KM20L2 colon
M19-MEL melanoma = system: M19-MEL melanoma
XF 498 CNS = system: XF 498 CNS
DMS 273 small cell lung = system: DMS 273 small cell lung
DLD-1 colon = system: DLD-1 colon
MDA-MB-231 breast = system: MDA-MB-231 breast
MCF7 breast = system: MCF7 breast
MDA-MB-435 = system: MDA-MB-435
BT-549 breast = system: BT-549 breast
HS 578T breast = system: HS 578T breast
T-47D breast = system: T-47D breast

SMILES | TGI (SNB-78 CNS) | TGI (KM20L2 colon) | TGI (M19-MEL melanoma) | TGI (XF 498 CNS) | TGI (DMS 273 small cell lung) | TGI (DLD-1 colon) | TGI (MDA-MB-231 breast) | TGI (MCF7 breast) | TGI (MDA-MB-435) | TGI (BT-549 breast) | TGI (HS 578T breast) | TGI (T-47D breast) | GI50 (MDA-MB-231 breast) | GI50 (MCF7 breast) | GI50 (MDA-MB-435) | GI50 (BT-549 breast) | GI50 (T-47D breast) | GI50 (HS 578T breast)
CN/N=C(/Cc1occc(=O)c1O)C(=O)Nc1ccccc1C | > 100 µM | > 100 µM | > 100 µM |  |  |  |  |  |  |  |  |  |  |  |  |  |  | 
COc1ccc2c3c1C(=O)CCCC3CO2 (configuration not stated) | > 100 µM |  | > 100 µM | > 100 µM | > 100 µM | > 100 µM |  |  |  |  |  |  |  |  |  |  |  | 
CN(C)CC[N+]1=Nc2cccc3cccc(c23)N1 | > 100 µM | > 100 µM | > 100 µM | > 100 µM | 35.6 µM | > 59.8 µM |  |  |  |  |  |  |  |  |  |  |  | 
O=C(O)c1ccccc1[Se][Se]c1ccccc1C(=O)O |  | 68.5 µM | > 100 µM | > 100 µM | > 100 µM | > 100 µM |  |  |  |  |  |  |  |  |  |  |  | 
O=C(CC1(O)C(=O)Nc2c(Cl)cc(Cl)cc21)c1ccc(Br)cc1Br (configuration not stated) | > 74.9 µM | 33.9 µM | 25.1 µM | 23.8 µM | 22.9 µM | 24.1 µM | 41.3 µM | 29.6 µM | 25.5 µM | 22.3 µM | 26.5 µM |  |  |  |  |  |  | 
CC(=O)NNc1nc(C)c(C(=O)NNC(=O)C(=O)Nc2ccc(Cl)cc2)s1 | > 100 µM | > 100 µM | > 100 µM | > 100 µM |  |  |  |  |  |  |  |  |  |  |  |  |  | 
C=C1C(=O)C23CC1CCC2C12CO[C@@H]4OCC(C)(CC[C@@H]1OC3=O)C42 (some centres not stated) | 9.57 µM | 17.5 µM | 19.6 µM | 3.41 µM | 19.6 µM |  |  |  |  |  |  |  |  |  |  |  |  | 
CCCCCCCCCCCCCCCCCC(CCCCCCCCCCCCCCCCC)OP(=O)(O)O | > 100 µM | > 100 µM | > 100 µM |  | > 100 µM |  |  |  |  |  |  |  |  |  |  |  |  | 
Cn1cnc([N+](=O)[O-])c1Sc1nnc(-c2cccnc2)n1C | 63.2 µM | > 100 µM | 38.8 µM | 44.8 µM | > 100 µM | 40.5 µM | 39.4 µM | 46.8 µM | 30.2 µM | 36.5 µM | > 89.4 µM | 32 µM |  |  |  |  |  | 
O=S1(=O)c2ccccc2NC(c2ccc3ccccc3c2)CC1c1ccccc1F (configuration not stated) |  | > 100 µM | > 100 µM | > 100 µM | > 100 µM | > 100 µM |  |  |  |  |  |  |  |  |  |  |  | 
O=C1C(=O)N(c2ccc(Cl)cc2Cl)C(=O)C(=O)C1c1nc2ccccc2s1 |  | > 100 µM | > 100 µM | 98.1 µM | > 100 µM | > 92.2 µM |  |  |  |  |  |  |  |  |  |  |  | 
Cc1ccc(C(=O)/C(=C/c2ccc([N+](=O)[O-])cc2)SCc2ccc(Cl)cc2)cc1 |  |  |  |  |  |  | 5.8 µM | 3.08 µM | 4.3 µM | 4.09 µM | 6.96 µM | 36.7 µM | 1.96 µM | 0.375 µM | 1.86 µM | 1.93 µM | 2.9 µM | 2.14 µM
O=C1/C(=C/c2ccccc2)CN(C(=O)C(Cl)(Cl)Cl)C/C1=C\c1ccccc1 | 7.54 µM | 4.67 µM | 2.68 µM |  | 2.38 µM | 4.28 µM |  |  |  |  |  |  |  |  |  |  |  | 
CCOC(=O)CN1C(=O)c2cccc3cc([N+](=O)[O-])cc(c23)C1=O | 19.3 µM | 26.5 µM |  | 4.49 µM |  | 5.43 µM |  |  |  |  |  |  |  |  |  |  |  | 
COc1cc2c(cc1OC)-c1c3cc(O)ccc3nn[n+]1CC2 | > 100 µM | > 100 µM | > 100 µM | > 100 µM | > 100 µM | > 100 µM |  |  |  |  |  |  |  |  |  |  |  | 
CCCCOC(=O)C1OC(O[C@H]2CCC3(C)C(CCC4(C)C3CC=C3C5CC(C)(C)CCC5(C(=O)O)CC[C@]34C)C2(C)C)C(OC2OC(CO)C(O)C(O)C2O)C(OC2OC(CO)C(O)C(O)C2O)C1O (some centres not stated) |  |  |  |  |  |  | 32.2 µM | > 100 µM | 81 µM | 41.6 µM | > 100 µM | > 100 µM | 14.5 µM | 38.4 µM | 30.6 µM | 21.5 µM | 48 µM | 38 µM
COC1=CC(=O)c2nc(-c3ccncc3)[nH]c2C1=O |  |  |  |  |  |  | > 100 µM | > 100 µM | > 100 µM | > 100 µM | > 100 µM | > 100 µM | > 100 µM | > 100 µM | > 100 µM | > 100 µM | > 100 µM | 60 µM
COC1(OC)CCC2C1C1CCC(OC)(OC)C21 (configuration not stated) | > 50 µM | > 50 µM | > 50 µM | > 50 µM | > 50 µM | > 50 µM |  |  |  |  |  |  |  |  |  |  |  | 
